Biological target: T1, human ANO1 (Homo sapiens, UniProt Q5XXA6)
T1 construct: expressed in transfected cells; host or cells: FRT cells (FRT-ANO1)
T1 sequence (Q5XXA6 1-986): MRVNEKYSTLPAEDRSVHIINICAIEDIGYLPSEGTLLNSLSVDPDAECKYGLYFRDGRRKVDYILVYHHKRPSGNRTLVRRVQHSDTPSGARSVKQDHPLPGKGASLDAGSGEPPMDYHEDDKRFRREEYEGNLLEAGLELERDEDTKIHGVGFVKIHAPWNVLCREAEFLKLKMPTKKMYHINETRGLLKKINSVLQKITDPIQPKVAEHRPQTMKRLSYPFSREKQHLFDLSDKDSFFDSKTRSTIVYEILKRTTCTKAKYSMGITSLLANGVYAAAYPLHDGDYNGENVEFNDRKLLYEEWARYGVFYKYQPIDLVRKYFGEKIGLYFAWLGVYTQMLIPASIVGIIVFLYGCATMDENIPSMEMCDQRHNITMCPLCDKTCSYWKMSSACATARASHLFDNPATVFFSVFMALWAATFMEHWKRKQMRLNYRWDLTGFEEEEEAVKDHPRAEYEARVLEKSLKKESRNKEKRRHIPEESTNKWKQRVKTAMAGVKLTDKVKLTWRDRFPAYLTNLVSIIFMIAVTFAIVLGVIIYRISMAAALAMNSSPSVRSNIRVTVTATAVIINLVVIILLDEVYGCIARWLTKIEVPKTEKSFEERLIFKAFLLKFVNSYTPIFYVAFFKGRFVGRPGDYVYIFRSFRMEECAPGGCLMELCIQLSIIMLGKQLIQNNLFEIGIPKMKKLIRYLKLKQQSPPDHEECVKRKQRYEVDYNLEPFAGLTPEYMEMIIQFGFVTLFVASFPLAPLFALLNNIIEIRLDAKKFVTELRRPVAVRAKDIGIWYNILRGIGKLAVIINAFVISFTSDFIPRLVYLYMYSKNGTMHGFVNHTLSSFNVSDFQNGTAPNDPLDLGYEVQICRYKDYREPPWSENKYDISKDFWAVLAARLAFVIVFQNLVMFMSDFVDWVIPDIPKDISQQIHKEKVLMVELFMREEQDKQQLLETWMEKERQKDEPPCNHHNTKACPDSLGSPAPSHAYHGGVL
Experiment: Apical membrane current in FRT cells expressing human ANO1
Format: cell-based
Settings: 30 μM added 10 min prior to ANO1 activation by 100 μM ATP

Structure (SMILES): COc1cc(-c2oc3cc(O)cc(O)c3c(=O)c2O)ccc1O [isorhamnetin]
- ANO1 function (apical membrane current): did not alter

Reference: paper PMC8070004, “Isorhamnetin Ameliorates Dry Eye Disease via CFTR Activation in Mice” (International Journal of Molecular Sciences, 2021)
